Consider 26 compounds from patent US20250163057A1, “DCN-1 MODULATING COMPOUNDS AND METHODS OF USE THEREOF” (Cellarity, Inc., priority 2023, published 2025).

pIC50: −log10 of the molar value. Where two headings read alike, the source gives them in different places.

This assay has as its target DCN1 (DCUND1) protein PONY domain (Homo sapiens (Human), UniProt Q96GG9). Put plainly: TR-FRET assay, DCN1 binding with FAM-labeled probe. The conditions noted are these: for IC50: TR FRET IC50 1 hr (nM). How it is done: A TR-FRET assay was performed to evaluate the ability of the compounds to bind the DCN-1 protein.
The TR-FRET assay was designed following the Scott et al. protocol (Scott et al., Nat Chem Biol. 2017 August; 13(8): 850-857. Doi:10.1038/nchembio.2386). The recombinant form of the DCN1 (DCUND1) protein PONY domain was produced using an E. coli expression system at Viva Biotech (China). The DCN1 protein was biotinylated (EZ sulfo-NHS-LC-biotin; Thermofisher) for labeling with streptavidin terbium (Tb) cryptate in the reaction. The probe was changed to a non-covalent DCN1 inhibitor labeled with carboxyfluorescein (FAM; Zhou et al., Nat Commun. 2017; 8: 1150. Doi: 10.1038/s41467-017-01243-7). Buffer conditions were modified to enhance protein stability by exchanging Tween20 for TritonX and increasing NaCl to 200 mM. The compounds were screened against 5 nM DCN1 and 20 nM FAM-probe or 0.31 nM DCN1 and 900 nM total probe (100 nM FAM-labeled plus 800 nM unlabeled). The TR-FRET ratio between Tb-DCN1 and the FAM-labeled probe was measured in a 384-well opti-plate (Perkin Elmer) using a plate reader (BMG) at 1, 5, and 24 hrs after treatment with compound (final DMSO concentration of 0.1%).
For orientation: In TR-FRET formats the signal depends on donor and acceptor labels being close together.

Where [1] appears, read: 24 hr after treatment with compound, read-out: TR FRET IC50 24 hr.
Setting [2] is: 1 hr after treatment with compound.

Sequence of DCN1 (DCUND1) protein PONY domain (Q96GG9 60-248): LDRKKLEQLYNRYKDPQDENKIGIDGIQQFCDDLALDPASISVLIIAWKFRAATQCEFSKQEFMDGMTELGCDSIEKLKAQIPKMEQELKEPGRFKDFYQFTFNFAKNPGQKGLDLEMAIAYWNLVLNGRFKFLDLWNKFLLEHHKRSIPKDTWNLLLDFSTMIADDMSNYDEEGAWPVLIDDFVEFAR

Take `CCN1C(=O)[C@H](NC(=O)c2cccc(C(F)(F)F)c2)[C@H](c2ccc(F)cc2)c2c([C@@H](C)N(C)C#N)nn(-c3ccccc3)c21` (relative stereo) [Compound I-79, N-((4R*,5R*)-7-ethyl-4-(4-fluorophenyl)-3-((R)-1-(N-methylcyanamido)ethyl)-6-oxo-1-phenyl-4,5,6,7-tetrahydro-1H-pyrazolo[3,4-b]pyridine-5-yl)-3-(trifluoromethyl)benzamide]: the pIC50 (as a rule, the negative decadic logarithm of the IC50, by convention in mol/L) under setting [1] is 5.52 to 6.00. Also, under setting [2], the IC50 (in general, the concentration needed to halve the response being measured) was in the range of 1000 to 3000 nM.

For the compound `CCN1C(=O)[C@@H](NC(=O)c2cccc(C(F)(F)F)c2)[C@@H](c2ccc(F)cc2)c2c(CNC(=O)C3(C#N)COC3)nn(-c3ccccc3)c21` (racemic) [Compound I-100, rac-3-cyano-N-(((4R,5R)-7-ethyl-4-(4-fluorophenyl)-6-oxo-1-phenyl-5-(3-(trifluoromethyl)benzamido)-4,5,6,7-tetrahydro-1H-pyrazolo[3,4-b]pyridine-3-yl)methyl)oxetane-3-carboxamide], the pIC50 under setting [1] is 6.00 to 6.70. For the same compound, the IC50 under setting [2] was 200 to 1000 nM.

Take `CCN1C(=O)[C@@H](NC(=O)c2cccc(C(F)(F)F)c2)[C@@H](c2ccc(F)cc2)c2c(C3(N(C)C#N)CC3)nn(-c3ccccc3)c21` (racemic) [Compound I-52]: the pIC50 under setting [1] was 5.52 to 6.00. For the same compound, the IC50 under setting [2] lay within 1000 to 3000 nM.

With `CCN1C(=O)[C@@H](NC(=O)c2ccc(F)c(F)c2OC)[C@@H](C2CC2)c2c(C(=O)N3[C@H](C#N)C[C@H]4C[C@H]43)nn(C3CCOCC3)c21` [Compound I-502], the pIC50 under setting [1] was 6.00 to 6.70. Under setting [2], the IC50 fell in the range of 1000 to 3000 nM.

Turning to `CCN1C(=O)[C@@H](NC(=O)COc2ccc3c(c2)CCC3)[C@@H](C2CC2)c2c(C(=O)N3[C@H](C#N)C[C@H]4C[C@H]43)nn(C3CCOCC3)c21` [Compound I-554], the pIC50 under setting [1] was 5.52 to 6.00. For the same compound, the IC50 under setting [2] lay within 1000 to 3000 nM.

`CCN1C(=O)[C@@H](NC(=O)c2ccc3c(c2)CCO3)[C@@H](C2CC2)c2c(C(=O)N3[C@H](C#N)C[C@H]4C[C@H]43)nn(C3CCOCC3)c21` [Compound I-547]: the pIC50 under setting [1] was at least 6.70. For the same compound, the IC50 under setting [2] lay within 200 to 1000 nM.

On to `CCN1C(=O)[C@@H](NC(=O)c2cccc(C(F)(F)F)c2)[C@@H](c2ccc(F)cc2)c2c(CNC(=O)/C=C/C(=O)NCCO)nn(-c3ccccc3)c21` (racemic) [Compound I-15, rac-N1-(((4R,5R)-7-ethyl-4-(4-fluorophenyl)-6-oxo-1-phenyl-5-(3-(trifluoromethyl)benzamido)-4,5,6,7-tetrahydro-1H-pyrazolo[3,4-b]pyridine-3-yl)methyl)-N4-(2-hydroxyethyl)fumaramide], for which the pIC50 under setting [1] is 5.52 to 6.00. Under setting [2], the IC50 was in the range of 1000 to 3000 nM.

Take `CCN1C(=O)[C@@H](NC(=O)c2cccc(C(F)(F)F)c2)[C@@H](c2ccc(F)cc2)c2c(CNC(=O)/C=C/C(=O)OC(C)(C)C)nn(-c3ccccc3)c21` (racemic) [Compound I-45, tert-butyl I-4-((((4S,5S)-7-ethyl-4-(4-fluorophenyl)-6-oxo-1-phenyl-5-(3-(trifluoromethyl)benzamido)-4,5,6,7-tetrahydro-1H-pyrazolo[3,4-b]pyridine-3-yl)methyl)amino)-4-oxobut-2-enoate]: the pIC50 under setting [1] is at least 6.70. For the same compound, under setting [2], the concentration for half-maximal inhibition (IC50) lay within 1000 to 3000 nM.

Regarding `CCN1C(=O)[C@@H](NC(=O)c2cccc(C(F)(F)F)c2)[C@@H](c2ccc(F)cc2)c2c(CC/C=C\C(=O)NC)nn(-c3ccccc3)c21` (racemic) [Compound I-43], under setting [1], the pIC50 is 5.52 to 6.00. Under setting [2], the IC50 lay in the range of 200 to 1000 nM.

Turning to `CCN1C(=O)[C@@H](NC(=O)c2cccc(C(F)(F)F)c2)[C@@H](c2ccc(F)cc2)c2c(CC/C=C\C(=O)N(C)C)nn(-c3ccccc3)c21` (racemic) [Compound I-69], the pIC50 under setting [1] was 6.00 to 6.70. Further, the IC50 under setting [2] fell in the range of 200 to 1000 nM.

Consider `CCN1C(=O)[C@@H](NC(=O)c2cccc(N3CCCC3=O)c2)[C@@H](C2CC2)c2c(C(=O)N3[C@H](C#N)C[C@H]4C[C@H]43)nn(C3CCOCC3)c21` [Compound I-505], for which the pIC50 under setting [1] was 5.52 to 6.00. Moreover, the IC50 under setting [2] is 1000 to 3000 nM.

Turning to `CCN1C(=O)[C@@H](NC(=O)c2ccc(C)c(C(F)(F)F)c2)[C@@H](C2CC2)c2c(C(=O)N3[C@H](C#N)C[C@H]4C[C@H]43)nn(C3CCOCC3)c21` [Compound I-627], the pIC50 was at least 6.70 under setting [1] and at least 6.70 (read-out: TR FRET IC50 1 hr, 1 hr after treatment with compound).

With `CCN1C(=O)[C@@H](NC(=O)C2(c3ccccc3)CC2)[C@@H](C2CC2)c2c(C(=O)N3[C@H](C#N)C[C@H]4C[C@H]43)nn(C3CCOCC3)c21` [Compound I-419], the pIC50 under setting [1] is 5.52 to 6.00. Besides, the IC50 under setting [2] lay in the range of 1000 to 3000 nM.

For `CCN1C(=O)[C@@H](NC(=O)c2cccc(C(F)(F)F)c2)[C@@H](c2ccc(F)cc2)c2c([C@@H](O)CNC#N)nn(-c3ccccc3)c21` [Compound I-130], the pIC50 under setting [1] is 6.00 to 6.70. Also, the concentration for half-maximal inhibition (IC50) under setting [2] fell in the range of 200 to 1000 nM.

On to `CCN1C(=O)[C@@H](NC(=O)c2cccc(C(F)(F)F)c2)[C@@H](c2ccc(F)cc2)c2c(C/C=C/C(=O)NCCO)nn(-c3ccccc3)c21` (racemic) [Compound I-36], for which the pIC50 under setting [1] was 5.52 to 6.00. Besides, the IC50 under setting [2] lay within 1000 to 3000 nM.

`C=C(C(=O)OC(C)(C)C)[C@@H](O)c1nn(-c2ccccc2)c2c1[C@H](c1ccc(F)cc1)[C@H](NC(=O)c1cccc(C(F)(F)F)c1)C(=O)N2CC` (racemic) [Compound I-146, rac-tert-butyl 2-(((4R,5R)-7-ethyl-4-(4-fluorophenyl)-6-oxo-1-phenyl-5-(3-(trifluoromethyl)benzamido)-4,5,6,7-tetrahydro-1H-pyrazolo[3,4-b]pyridin-3-yl)(hydroxy)methyl)acrylate]: under setting [1], the pIC50 is 6.00 to 6.70. Also, the IC50 under setting [2] fell in the range of 1000 to 3000 nM.

Turning to `CCN1C(=O)[C@@H](NC(=O)c2cccc(C(F)(F)F)c2)[C@@H](c2ccc(F)cc2)c2c(CNCC#N)nn(-c3ccccc3)c21` (racemic) [Compound I-96, rac-N-((4R,5R)-3-(((cyanomethyl)amino)methyl)-7-ethyl-4-(4-fluorophenyl)-6-oxo-1-phenyl-4,5,6,7-tetrahydro-1H-pyrazolo[3,4-b]pyridine-5-yl)-3-(trifluoromethyl)benzamide], the pIC50 under setting [1] is 6.00 to 6.70. Also, the IC50 under setting [2] was in the range of 200 to 1000 nM.

For the compound `CCN1C(=O)[C@@H](NC(=O)c2nc3c(s2)CN(C)CC3)[C@@H](C2CC2)c2c(C(=O)N3[C@H](C#N)C[C@H]4C[C@H]43)nn(C3CCOCC3)c21` [Compound I-512], under setting [1], the pIC50 is 5.52 to 6.00. In addition, the IC50 under setting [2] was in the range of 1000 to 3000 nM.

`CCN1C(=O)[C@@H](NC(=O)c2ccn(C(C)(C)C)n2)[C@@H](C2CC2)c2c(C(=O)N3[C@H](C#N)C[C@H]4C[C@H]43)nn(C3CCOCC3)c21` [Compound I-688]: the pIC50 under setting [1] is at least 6.70. Besides, the IC50 under setting [2] is 200 to 1000 nM.

Take `CCN1C(=O)[C@@H](NC(=O)C2CCC(F)(F)CC2)[C@@H](C2CC2)c2c(C(=O)N3[C@H](C#N)C[C@H]4C[C@H]43)nn(C3CCOCC3)c21` [Compound I-652]: under setting [1], the pIC50 is 5.52 to 6.00. In addition, the IC50 under setting [2] lay in the range of 1000 to 3000 nM.

As for `CCN1C(=O)[C@@H](NC(=O)CC2CCCc3ccccc32)[C@@H](C2CC2)c2c(C(=O)N3[C@H](C#N)C[C@H]4C[C@H]43)nn(C3CCOCC3)c21` (stereo partly shown) [Compound I-663], the pIC50 under setting [1] was 5.52 to 6.00. Further, under setting [2], the IC50 was in the range of 1000 to 3000 nM.

Consider `CCN1C(=O)[C@@H](NC(=O)c2cccc(C(F)(F)F)c2)[C@@H](c2ccc(F)cc2)c2c(CC/C=C\C(=O)O)nn(-c3ccccc3)c21` (racemic) [Compound I-126, rac-(Z)-5-((4R,5R)-7-ethyl-4-(4-fluorophenyl)-6-oxo-1-phenyl-5-(3-(trifluoromethyl)benzamido)-4,5,6,7-tetrahydro-1H-pyrazolo[3,4-b]pyridin-3-yl)pent-2-enoic acid], for which the pIC50 under setting [1] was 6.00 to 6.70. In addition, the IC50 under setting [2] lay in the range of 200 to 1000 nM.

For `C=C(C)S(=O)(=O)NCc1nn(-c2ccccc2)c2c1[C@H](c1ccc(F)cc1)[C@H](NC(=O)c1cccc(C(F)(F)F)c1)C(=O)N2CC` (racemic) [Compound I-54, rac-N-((4R,5R)-7-ethyl-4-(4-fluorophenyl)-3-(((1-methylvinyl)sulfonamido)methyl)-6-oxo-1-phenyl-4,5,6,7-tetrahydro-1H-pyrazolo[3,4-b]pyridin-5-yl)-3-(trifluoromethyl)benzamide], the pIC50 under setting [1] was 6.00 to 6.70. The IC50 under setting [2] was in the range of 200 to 1000 nM.

With `CCC(=O)N[C@@H]1C(=O)N(CC)c2c(c(C(=O)N3[C@H](C#N)C[C@H]4C[C@H]43)nn2C2CCOCC2)[C@@H]1C1CC1` [Compound I-696], the pIC50 under setting [1] is 5.52 to 6.00. Further, the IC50 under setting [2] is 1000 to 3000 nM.

Take `CCN1C(=O)[C@@H](NC(=O)CC(C)(C)C)[C@@H](C2CC2)c2c(C(=O)N3[C@H](C#N)C[C@H]4C[C@H]43)nn(C3CCOCC3)c21` [Compound I-424]: under setting [1], the pIC50 was 5.52 to 6.00. Also, the IC50 under setting [2] fell in the range of 1000 to 3000 nM.

Take `C=C(Cc1nn(-c2ccccc2)c2c1[C@H](c1ccc(F)cc1)[C@H](NC(=O)c1cccc(C(F)(F)F)c1)C(=O)N2CC)C(=O)O` (racemic) [Compound I-21, rac-2-(((4R,5R)-7-ethyl-4-(4-fluorophenyl)-6-oxo-1-phenyl-5-(3-(trifluoromethyl)benzamido)-4,5,6,7-tetrahydro-1H-pyrazolo[3,4-b]pyridin-3-yl)methyl)acrylic acid]: the pIC50 under setting [1] was 5.52 to 6.00. Also, under setting [2], the IC50 was in the range of 1000 to 3000 nM.
